{"source": "paper PMC9652372", "about": "“Glycolytic flux control by drugging phosphoglycolate phosphatase” (Nature Communications, 2022)", "key": {"[1]": {"target": "T1, murine PDXP/PGP hybrid (Mus musculus, UniProt P60487+Q8CHP8)", "T1 construct": "consisting of the PGP cap domain (amino acids 114–233) fused to the PDXP core domain; His6 (N, cleaved yes); made in house; host or cells: Escherichia coli BL21 (DE3), pETM11", "T1 sequence (P60487 1-100)": "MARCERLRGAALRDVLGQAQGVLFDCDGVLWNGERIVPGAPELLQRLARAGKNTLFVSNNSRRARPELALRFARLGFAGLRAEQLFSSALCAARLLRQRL", "T1 sequence (Q8CHP8 114-233)": "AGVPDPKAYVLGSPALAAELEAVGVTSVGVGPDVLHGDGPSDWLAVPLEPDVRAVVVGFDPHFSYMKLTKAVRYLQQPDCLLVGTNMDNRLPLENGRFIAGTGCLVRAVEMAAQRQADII", "T1 sequence (P60487 208-292)": "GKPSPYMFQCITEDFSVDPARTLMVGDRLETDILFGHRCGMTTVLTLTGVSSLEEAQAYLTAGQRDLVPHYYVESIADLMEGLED", "assay": "PG dephosphorylation by PDXP/PGP hybrid protein", "type": "biochemical", "protocol": "After centrifugation, cells were resuspended in TNM-2 (100 mM triethanolamine, 500 mM NaCl, 20 mM imidazole, 5 mM MgCl2; pH 7.4). Cleared supernatants were loaded on a HisTrap HP nickel sepharose column in TNM-3 (50 mM triethanolamine, 500 mM NaCl, 20 mM imidazole, 5 mM MgCl2; pH 7.4), and His6-tagged proteins were eluted using a linear gradient of up to 50% TNM-4 (50 mM triethanolamine; 250 mM NaCl; 500 mM imidazole; 5 mM MgCl2; pH 7.4). Peak fractions were pooled, the His6-tag was cleaved, and untagged PDXP or PDXP/PGP was isolated, concentrated and further purified by size exclusion chromatography in TNM-5 (50 mM triethanolamine; 250 mM NaCl; 5 mM MgCl2; pH 7.4). […] Data were analyzed with GraphPad Prism 7.04."}, "[2]": {"target": "T2, PGP^WT (Mus musculus, UniProt Q8CHP8)", "T2 construct": "His6 (N, cleaved yes); made in house; host or cells: Escherichia coli BL21 (DE3), pETM11, co-expressed with groES-groEL-tig", "T2 sequence (Q8CHP8 1-321)": "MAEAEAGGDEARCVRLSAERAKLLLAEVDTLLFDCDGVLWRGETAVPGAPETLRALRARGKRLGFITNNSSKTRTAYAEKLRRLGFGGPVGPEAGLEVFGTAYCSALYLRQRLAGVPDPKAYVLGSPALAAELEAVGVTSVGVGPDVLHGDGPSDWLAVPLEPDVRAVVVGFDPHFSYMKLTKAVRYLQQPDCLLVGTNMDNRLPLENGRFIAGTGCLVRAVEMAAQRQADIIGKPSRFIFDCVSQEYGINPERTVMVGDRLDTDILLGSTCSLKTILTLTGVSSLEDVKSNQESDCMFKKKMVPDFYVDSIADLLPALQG", "assay": "Differential scanning fluorimetry (Thermofluor)", "type": "binding"}, "[3]": {"assay": "physchem", "conditions": "organic solvent or mixture"}, "[4]": {"target": "T3, murine PGP (Mus musculus, UniProt Q8CHP8)", "T3 sequence (Q8CHP8 1-321)": "T2 sequence (Q8CHP8 1-321)", "assay": "biochemical"}, "[5]": {"target": "T4, murine PDXP (Mus musculus, UniProt P60487)", "T4 sequence (P60487 1-292)": "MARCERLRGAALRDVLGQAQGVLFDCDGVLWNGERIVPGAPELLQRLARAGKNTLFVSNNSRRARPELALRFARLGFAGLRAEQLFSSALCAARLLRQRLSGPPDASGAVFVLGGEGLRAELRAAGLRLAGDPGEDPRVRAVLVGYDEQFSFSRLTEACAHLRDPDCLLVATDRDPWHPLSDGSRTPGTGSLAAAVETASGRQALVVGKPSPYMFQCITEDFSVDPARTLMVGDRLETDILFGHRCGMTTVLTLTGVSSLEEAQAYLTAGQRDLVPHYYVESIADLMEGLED", "assay": "PDXP activity towards pyridoxal 5'-phosphate (PLP)", "conditions": "phosphatase PDXP; species M.m.; substrate PLP; n.s. = no significant inhibition detectable"}, "[6]": {"target": "T3, murine PGP", "assay": "IC50 determination, murine PGP, pNPP dephosphorylation"}, "[7]": {"target": "T5, PGP (Mus musculus, UniProt Q8CHP8)", "T5 sequence (Q8CHP8 1-321)": "T2 sequence (Q8CHP8 1-321)", "assay": "Steady state kinetics of PG dephosphorylation in presence of CP1-3", "conditions": "for PGP activity: 1 µM CP2"}}, "note": "Several values for one entry are separate records, joined by “and”; a condition that tells them apart may be missing. Equal values may be shown once. Read-outs that look alike come from different tables or passages of the source.", "data": [{"smiles": "COc1ccc(C(=O)Nc2ccc(Cc3ccc(NC(=O)c4ccc(OC)c(OC)c4)c(C(=O)O)c3)cc2C(=O)O)cc1OC", "note": "[CP2]", "values": [{"measurement": "remaining activity at 64 µM", "setting": "[1]; activity, control = 100, CP log[M] -4.19382", "value": 17.6, "unit": "%"}, {"measurement": "remaining activity at 32 µM", "setting": "[1]; activity, control = 100, CP log[M] -4.49485", "value": 16, "unit": "%"}, {"measurement": "remaining activity at 16 µM", "setting": "[1]; activity, control = 100, CP log[M] -4.79588", "value": 23.7, "unit": "%"}, {"measurement": "remaining activity at 4 µM", "setting": "[1]; activity, control = 100, CP log[M] -5.39794", "value": 48.1, "unit": "%"}, {"measurement": "remaining activity at 2 µM", "setting": "[1]; activity, control = 100, CP log[M] -5.69897", "value": 55.7, "unit": "%"}, {"measurement": "remaining activity at 1 µM", "setting": "[1]; activity, control = 100, CP log[M] -6", "value": 80.9, "unit": "%"}, {"measurement": "remaining activity at 0.5 µM", "setting": "[1]; activity, control = 100, CP log[M] -6.30103", "value": 90.8, "unit": "%"}, {"measurement": "remaining activity at […]", "setting": "[1]; activity, control = 100, CP log[M] -6.60206", "value": 93.9, "unit": "%"}, {"measurement": "remaining activity at 0.125 µM", "setting": "[1]; activity, control = 100, CP log[M] -6.90309", "value": 94.7, "unit": "%"}, {"measurement": "remaining activity at 0.0625 µM", "setting": "[1]; activity, control = 100, CP log[M] -7.20412", "value": 87.8, "unit": "%"}, {"measurement": "remaining activity at 0.015625 µM", "setting": "[1]; activity, control = 100, CP log[M] -7.80618", "value": 101, "unit": "%"}, {"measurement": "IC50", "setting": "[1]; phosphatase PDXP/PGP, species M.m., substrate PG", "value": "2.57 ± 0.23", "unit": "µM"}, {"measurement": "TM", "setting": "[2]; Inhibitor 0.146484 µM", "value": 66.4, "unit": "°C"}, {"measurement": "TM", "setting": "[2]; Inhibitor 0.292969 µM", "value": 66.5, "unit": "°C"}, {"measurement": "TM", "setting": "[2]; Inhibitor 0.585938 µM", "value": 66.5, "unit": "°C"}, {"measurement": "TM", "setting": "[2]; Inhibitor 1.17188 µM", "value": 66.5, "unit": "°C"}, {"measurement": "TM", "setting": "[2]; Inhibitor 2.34375 µM", "value": 66.6, "unit": "°C"}, {"measurement": "TM", "setting": "[2]; Inhibitor 4.6875 µM", "value": 66.8, "unit": "°C"}, {"measurement": "TM", "setting": "[2]; Inhibitor 9.375 µM", "value": 67.7, "unit": "°C"}, {"measurement": "TM", "setting": "[2]; Inhibitor 18.75 µM", "value": 68.2, "unit": "°C"}, {"measurement": "TM", "setting": "[2]; Inhibitor 37.5 µM", "value": 68.6, "unit": "°C"}, {"measurement": "TM", "setting": "[2]; Inhibitor 75 µM", "value": 68.6, "unit": "°C"}, {"measurement": "TM", "setting": "[2]; Inhibitor 150 µM", "value": 67.9, "unit": "°C"}, {"measurement": "increase in the maximal PGP melting temperature", "setting": "[2]; from 66.4 °C (control conditions)", "value": 2.2, "unit": "°"}, {"measurement": "solubility", "setting": "[3]", "value": 15, "unit": "mM"}, {"measurement": "IC50", "setting": "[4]", "value": "1.58 µM and 0.7 µM"}, {"measurement": "IC50", "setting": "[5]", "value": "n.s."}, {"measurement": "IC50", "setting": "[6]", "value": "4.76 ± 1.19", "unit": "µM"}, {"measurement": "remaining activity at 50 µM", "setting": "[6]; read-out: M.m PGP on pNPP, activity, control = 100.00, CP log[M] -4.30103", "value": 28.4, "unit": "%"}, {"measurement": "remaining activity at 25 µM", "setting": "[6]; read-out: M.m PGP on pNPP, activity, control = 100.00, CP log[M] -4.60206", "value": 32.2, "unit": "%"}, {"measurement": "remaining activity at 10 µM", "setting": "[6]; read-out: M.m PGP on pNPP, activity, control = 100.00, CP log[M] -5", "value": 43.5, "unit": "%"}, {"measurement": "remaining activity at 5 µM", "setting": "[6]; read-out: M.m PGP on pNPP, activity, control = 100.00, CP log[M] -5.30103", "value": 58.6, "unit": "%"}, {"measurement": "remaining activity at […]", "setting": "[6]; read-out: M.m PGP on pNPP, activity, control = 100.00, CP log[M] -5.60206", "value": 63.7, "unit": "%"}, {"measurement": "remaining activity at 1 µM", "setting": "[6]; read-out: M.m PGP on pNPP, activity, control = 100.00, CP log[M] -6", "value": 94.7, "unit": "%"}, {"measurement": "remaining activity at 0.5 µM", "setting": "[6]; read-out: M.m PGP on pNPP, activity, control = 100.00, CP log[M] -6.30103", "value": 85.5, "unit": "%"}, {"measurement": "remaining activity at […]", "setting": "[6]; read-out: M.m PGP on pNPP, activity, control = 100.00, CP log[M] -6.60206", "value": 93.2, "unit": "%"}, {"measurement": "remaining activity at 0.125 µM", "setting": "[6]; read-out: M.m PGP on pNPP, activity, control = 100.00, CP log[M] -6.90309", "value": 91.7, "unit": "%"}, {"measurement": "remaining activity at 0.0625 µM", "setting": "[6]; read-out: M.m PGP on pNPP, activity, control = 100.00, CP log[M] -7.20412", "value": 105, "unit": "%"}, {"measurement": "remaining activity at 0.03125 µM", "setting": "[6]; read-out: M.m PGP on pNPP, activity, control = 100.00, CP log[M] -7.50515", "value": 94, "unit": "%"}, {"measurement": "mode of PGP inhibition", "setting": "[7]", "value": "competitive inhibitors"}, {"measurement": "PGP activity", "setting": "[7]; PG 25 µM", "value": "1.021 µmol Pi/min/mg and 0.7809 µmol Pi/min/mg and 1.201 µmol Pi/min/mg"}, {"measurement": "PGP activity", "setting": "[7]; PG 50 µM", "value": "2.343 µmol Pi/min/mg and 1.682 µmol Pi/min/mg and 2.403 µmol Pi/min/mg"}]}]}
